Results taken from paper PMC9186362, “Design and biological evaluation of substituted 5,7-dihydro-6H-indolo[2,3-c]quinolin-6-one as novel selective Haspin inhibitors” (Journal of Enzyme Inhibition and Medicinal Chemistry, 2022).

Tests used:
[1] = target: RnDYRK1A (Rattus norvegicus, UniProt Q63470); experiment: ADP-Glo kinase assay; type: biochemical, Rattus norvegicus (Rn)
Procedure: Kinase activities were determined using the ADP-Glo methodology (ADP-Glo Kinase Assay; Promega) according to the assay described by Nguyen et al.[32] except for MmCLK1. The later was assayed in the following buffer: 10 mM MgCl2, 1 mM EGTA, 1 mM DTT, 25 mM Tris-HCl pH 7.5, 50 µg/ml heparin, 0.15 mg/ml BSA, with 0.027 µg/µl of the following peptide: GRSRSRSRSRSR as substrate.

[2] = target: T1, PIK3CD/PIK3R1 (p110 delta/p85 alpha) (Homo sapiens, UniProt O00329); experiment: SelectScreen Adapta; type: biochemical; conditions: ATP Km, read-out: Percentage of inhibition
T1 construct: purchased Life Technologies (SelectScreen Whole Panel service)
Procedure: (§1) We further evaluated the selectivity profile of compound 55 on a larger panel of kinases (SelectScreen Whole Panel, Life Technologies). The inhibition profile of 55, evaluated at 1 μM, is depicted on a dendrogram on Figure 3 where kinases inhibited by a minimum of 80% are shown. A full list of the kinases tested is shown on Table S1 in supplementary information.

[3] = target: EPHA6 (Homo sapiens, UniProt Q9UF33); experiment: LanthaScreen Binding - Eu-anti-GST; conditions: read-out: Percentage of inhibition
Procedure: as §1

[4] = target: MLCK (MLCK2) (Homo sapiens, UniProt Q32MK0); experiment: LanthaScreen Binding - Eu-anti-GST; conditions: read-out: Percentage of inhibition
Procedure: as §1

[5] = target: TEK (TIE2) Y1108F (Homo sapiens, UniProt Q02763, Y1108F); experiment: LanthaScreen Binding - Eu-anti-GST; conditions: read-out: Percentage of inhibition
Procedure: as §1

[6] = target: T2, AXL R499C (Homo sapiens, UniProt P30530, R499C); experiment: LanthaScreen Binding - Eu-anti-GST; conditions: read-out: Percentage of inhibition
T2 construct: purchased Life Technologies
Procedure: as §1

[7] = target: T3, TESK2 (Homo sapiens, UniProt Q96S53); experiment: LanthaScreen Binding - Eu-anti-GST; conditions: read-out: Percentage of inhibition
T3 construct: purchased Life Technologies
Procedure: as §1

[8] = target: T4, MAP2K4 (MEK4) (Homo sapiens, UniProt P45985); experiment: LanthaScreen Binding - Eu-anti-GST; conditions: read-out: Percentage of inhibition
T4 construct: purchased Life Technologies (SelectScreen service)
Procedure: as §1

[9] = target: T5, CDK2/cyclin A1 (Homo sapiens, UniProt P24941); experiment: LanthaScreen Binding - Eu-anti-GST; conditions: read-out: Percentage of inhibition
T5 construct: purchased Life Technologies (SelectScreen Whole Panel service)
Procedure: as §1

[10] = target: T6, KIT N822K (Homo sapiens, UniProt P10721, N822K); experiment: LanthaScreen Binding - Eu-anti-GST; conditions: read-out: Percentage of inhibition
T6 construct: purchased Life Technologies (SelectScreen Whole Panel service)
Procedure: as §1

[11] = target: T7, CDK14 (PFTK1)/cyclin Y (Homo sapiens, UniProt O94921); experiment: LanthaScreen Binding - Eu-anti-GST; conditions: read-out: Percentage of inhibition
T7 construct: purchased Life Technologies
Procedure: as §1

[12] = target: ACVR1 (ALK2) R206H (Homo sapiens, UniProt Q04771, R206H); experiment: LanthaScreen Binding - Eu-anti-GST; conditions: read-out: Percentage of inhibition
Procedure: as §1

[13] = target: T8, EGFR (ErbB1) d746-750 (Homo sapiens, UniProt P00533, DEL746-750); experiment: LanthaScreen Binding - Eu-anti-GST; conditions: read-out: Percentage of inhibition
T8 construct: purchased Life Technologies
Procedure: as §1

[14] = target: T9, ALK R1275Q (Homo sapiens, UniProt Q9UM73, R1275Q); experiment: LanthaScreen Binding - Eu-anti-GST; conditions: read-out: Percentage of inhibition
T9 construct: purchased Life Technologies (SelectScreen service)
Procedure: as §1

[15] = target: T10, TAOK1 (Homo sapiens, UniProt Q7L7X3); experiment: LanthaScreen Binding - Eu-anti-GST; conditions: read-out: Percentage of inhibition
T10 construct: purchased Life Technologies
Procedure: as §1

[16] = target: T11, DYRK2 (Homo sapiens, UniProt Q92630); experiment: LanthaScreen Binding - Eu-anti-GST; conditions: read-out: Percentage of inhibition
T11 construct: purchased Life Technologies
Procedure: as §1

[17] = target: T12, ALK C1156Y (Homo sapiens, UniProt Q9UM73, C1156Y); experiment: LanthaScreen Binding - Eu-anti-GST; conditions: read-out: Percentage of inhibition
T12 construct: purchased Life Technologies
Procedure: as §1

[18] = target: T13, ANKK1 (Homo sapiens, UniProt Q8NFD2); experiment: LanthaScreen Binding - Eu-anti-GST; conditions: read-out: Percentage of inhibition
T13 construct: purchased Life Technologies (SelectScreen service)
Procedure: as §1

[19] = target: T14, STK38 (NDR) (Homo sapiens, UniProt Q15208); experiment: LanthaScreen Binding - Eu-anti-GST; conditions: read-out: Percentage of inhibition
T14 construct: purchased Life Technologies (SelectScreen Whole Panel service)
Procedure: as §1

[20] = target: T15, NLK (Homo sapiens, UniProt Q9UBE8); experiment: LanthaScreen Binding - Eu-anti-GST; conditions: read-out: Percentage of inhibition
T15 construct: purchased Life Technologies (SelectScreen Whole Panel service)
Procedure: as §1

[21] = target: T16, STK32C (YANK3) (Homo sapiens, UniProt Q86UX6); experiment: LanthaScreen Binding - Eu-anti-GST; conditions: read-out: Percentage of inhibition
T16 construct: purchased Life Technologies (SelectScreen Whole Panel)
Procedure: as §1

[22] = target: FGFR1 V561M (Homo sapiens, UniProt P11362, V561M); experiment: LanthaScreen Binding - Eu-anti-GST; conditions: read-out: Percentage of inhibition
Procedure: as §1

[23] = target: T17, MAP3K11 (MLK3) (Homo sapiens, UniProt Q16584); experiment: LanthaScreen Binding - Eu-anti-GST; conditions: read-out: Percentage of inhibition
T17 construct: purchased Life Technologies
Procedure: as §1

[24] = target: T18, PRKACG (PRKAC gamma) (Homo sapiens, UniProt P22612); experiment: LanthaScreen Binding - Eu-anti-GST; conditions: read-out: Percentage of inhibition
T18 construct: purchased Life Technologies (SelectScreen Whole Panel service)
Procedure: as §1

[25] = target: T19, CAMK2G (CaMKII gamma) (Homo sapiens, UniProt Q13555); experiment: LanthaScreen Binding - Eu-anti-GST; conditions: read-out: Percentage of inhibition
T19 construct: purchased Life Technologies
Procedure: as §1

[26] = target: T20, ACVR1 (ALK2) (Homo sapiens, UniProt Q04771); experiment: LanthaScreen Binding - Eu-anti-GST; conditions: read-out: Percentage of inhibition
T20 construct: purchased Life Technologies (SelectScreen Whole Panel service)
Procedure: as §1

[27] = target: T21, MAPK10 (JNK3) (Homo sapiens, UniProt P53779); experiment: LanthaScreen Binding - Eu-anti-GST; conditions: read-out: Percentage of inhibition
T21 construct: purchased Life Technologies
Procedure: as §1

[28] = target: T22, BRAF V599E (Homo sapiens, UniProt P15056, V600E); experiment: LanthaScreen Binding - Eu-anti-GST; conditions: read-out: Percentage of inhibition
T22 construct: purchased Life Technologies
Procedure: as §1

[29] = target: T23, MAP3K5 (ASK1) (Homo sapiens, UniProt Q99683); experiment: LanthaScreen Binding - Eu-anti-GST; conditions: read-out: Percentage of inhibition
T23 construct: purchased Life Technologies
Procedure: as §1

[30] = target: T24, AAK1 (Homo sapiens, UniProt Q2M2I8); experiment: LanthaScreen Binding - Eu-anti-GST; conditions: read-out: Percentage of inhibition
T24 construct: purchased Life Technologies
Procedure: as §1

[31] = target: T25, CDK16 (PCTK1)/cyclin Y (Homo sapiens, UniProt Q00536); experiment: LanthaScreen Binding - Eu-anti-GST; conditions: read-out: Percentage of inhibition
T25 construct: purchased Life Technologies
Procedure: as §1

[32] = target: WNK2 (Homo sapiens, UniProt Q9Y3S1); experiment: LanthaScreen Binding - Eu-anti-GST; conditions: read-out: Percentage of inhibition
Procedure: as §1

[33] = target: T26, ZAK (Homo sapiens, UniProt Q9NYL2); experiment: LanthaScreen Binding - Eu-anti-GST; conditions: read-out: Percentage of inhibition
T26 construct: purchased Life Technologies
Procedure: as §1

[34] = target: T27, CASK (Homo sapiens, UniProt O14936); experiment: LanthaScreen Binding - Eu-anti-GST; conditions: read-out: Percentage of inhibition
T27 construct: purchased Life Technologies (SelectScreen Whole Panel)
Procedure: as §1

[35] = target: T28, IRAK3 (Homo sapiens, UniProt Q9Y616); experiment: LanthaScreen Binding - Eu-anti-GST; conditions: read-out: Percentage of inhibition
T28 construct: purchased Life Technologies (SelectScreen service)
Procedure: as §1

T15 sequence (Q9UBE8 whole entry): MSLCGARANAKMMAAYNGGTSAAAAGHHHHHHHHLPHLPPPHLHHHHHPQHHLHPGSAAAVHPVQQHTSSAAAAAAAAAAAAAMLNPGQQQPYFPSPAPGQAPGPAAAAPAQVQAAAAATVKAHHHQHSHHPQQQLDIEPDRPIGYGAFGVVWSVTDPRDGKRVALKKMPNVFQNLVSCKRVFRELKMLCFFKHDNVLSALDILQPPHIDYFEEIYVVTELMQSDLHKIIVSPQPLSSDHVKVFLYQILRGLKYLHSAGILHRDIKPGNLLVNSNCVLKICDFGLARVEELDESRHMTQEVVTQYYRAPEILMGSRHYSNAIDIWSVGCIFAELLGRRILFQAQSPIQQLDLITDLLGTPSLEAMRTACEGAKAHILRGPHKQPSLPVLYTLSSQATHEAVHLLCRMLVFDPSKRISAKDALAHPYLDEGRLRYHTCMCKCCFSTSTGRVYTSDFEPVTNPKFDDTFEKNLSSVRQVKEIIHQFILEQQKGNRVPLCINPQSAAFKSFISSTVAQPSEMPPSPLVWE
T11 sequence (Q92630 whole entry): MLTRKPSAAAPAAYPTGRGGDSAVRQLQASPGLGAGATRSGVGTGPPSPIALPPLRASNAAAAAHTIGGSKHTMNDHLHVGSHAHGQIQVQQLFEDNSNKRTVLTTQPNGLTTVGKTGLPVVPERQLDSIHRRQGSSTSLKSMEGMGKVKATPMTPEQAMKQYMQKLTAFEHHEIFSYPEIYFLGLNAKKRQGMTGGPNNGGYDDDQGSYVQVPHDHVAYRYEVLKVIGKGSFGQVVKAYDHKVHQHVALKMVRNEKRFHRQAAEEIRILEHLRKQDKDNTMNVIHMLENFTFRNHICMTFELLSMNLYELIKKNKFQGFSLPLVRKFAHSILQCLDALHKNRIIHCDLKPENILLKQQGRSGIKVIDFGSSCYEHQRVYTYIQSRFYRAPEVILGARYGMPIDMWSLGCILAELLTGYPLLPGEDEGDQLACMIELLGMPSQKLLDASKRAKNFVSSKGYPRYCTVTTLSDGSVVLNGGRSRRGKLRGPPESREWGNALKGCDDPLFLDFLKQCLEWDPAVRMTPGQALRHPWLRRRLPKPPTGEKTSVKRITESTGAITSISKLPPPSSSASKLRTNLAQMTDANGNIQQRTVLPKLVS
T7 sequence (O94921 whole entry): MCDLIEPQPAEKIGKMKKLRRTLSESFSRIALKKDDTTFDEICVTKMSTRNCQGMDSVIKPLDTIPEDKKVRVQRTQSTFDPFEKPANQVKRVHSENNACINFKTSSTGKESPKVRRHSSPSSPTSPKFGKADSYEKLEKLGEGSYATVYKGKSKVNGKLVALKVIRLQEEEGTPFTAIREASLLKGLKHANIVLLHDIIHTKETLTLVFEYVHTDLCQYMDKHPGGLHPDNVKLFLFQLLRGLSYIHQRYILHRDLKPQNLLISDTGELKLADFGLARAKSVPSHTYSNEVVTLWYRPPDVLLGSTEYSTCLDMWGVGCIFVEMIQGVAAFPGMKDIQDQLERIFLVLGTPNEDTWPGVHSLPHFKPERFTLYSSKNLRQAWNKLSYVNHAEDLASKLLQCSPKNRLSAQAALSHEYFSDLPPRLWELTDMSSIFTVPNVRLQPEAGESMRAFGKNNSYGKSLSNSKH
T7 sequence (Q8ND76 whole entry partner): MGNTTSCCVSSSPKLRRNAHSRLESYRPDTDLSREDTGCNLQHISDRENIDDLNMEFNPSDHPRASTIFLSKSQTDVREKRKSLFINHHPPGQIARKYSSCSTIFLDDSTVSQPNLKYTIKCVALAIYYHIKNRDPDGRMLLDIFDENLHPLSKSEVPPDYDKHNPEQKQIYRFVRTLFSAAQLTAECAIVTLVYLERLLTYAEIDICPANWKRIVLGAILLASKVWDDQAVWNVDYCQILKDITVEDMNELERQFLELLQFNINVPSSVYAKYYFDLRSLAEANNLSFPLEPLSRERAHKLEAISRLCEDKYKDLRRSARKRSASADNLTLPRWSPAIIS
T26 sequence (Q9NYL2 whole entry): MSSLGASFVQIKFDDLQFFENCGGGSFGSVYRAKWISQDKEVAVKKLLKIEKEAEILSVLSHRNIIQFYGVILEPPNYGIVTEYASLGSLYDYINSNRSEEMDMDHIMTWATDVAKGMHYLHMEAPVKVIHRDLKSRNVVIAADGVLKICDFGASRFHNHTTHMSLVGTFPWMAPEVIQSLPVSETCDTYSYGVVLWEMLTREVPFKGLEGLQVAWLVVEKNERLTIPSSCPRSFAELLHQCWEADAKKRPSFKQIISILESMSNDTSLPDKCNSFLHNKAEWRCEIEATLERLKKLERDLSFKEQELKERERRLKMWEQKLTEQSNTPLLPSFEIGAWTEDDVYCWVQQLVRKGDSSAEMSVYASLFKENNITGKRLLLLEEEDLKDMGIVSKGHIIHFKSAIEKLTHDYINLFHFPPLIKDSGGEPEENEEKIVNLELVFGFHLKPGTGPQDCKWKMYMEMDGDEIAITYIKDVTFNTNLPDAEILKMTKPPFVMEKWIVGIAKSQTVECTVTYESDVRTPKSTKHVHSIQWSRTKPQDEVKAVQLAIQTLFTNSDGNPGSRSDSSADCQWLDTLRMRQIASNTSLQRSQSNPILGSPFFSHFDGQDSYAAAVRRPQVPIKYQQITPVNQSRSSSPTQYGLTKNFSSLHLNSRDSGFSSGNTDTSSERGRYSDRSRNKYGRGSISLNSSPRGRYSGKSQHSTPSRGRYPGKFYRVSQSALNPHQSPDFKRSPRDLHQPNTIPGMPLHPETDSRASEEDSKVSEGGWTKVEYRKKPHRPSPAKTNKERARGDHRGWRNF
T19 sequence (Q13555 whole entry): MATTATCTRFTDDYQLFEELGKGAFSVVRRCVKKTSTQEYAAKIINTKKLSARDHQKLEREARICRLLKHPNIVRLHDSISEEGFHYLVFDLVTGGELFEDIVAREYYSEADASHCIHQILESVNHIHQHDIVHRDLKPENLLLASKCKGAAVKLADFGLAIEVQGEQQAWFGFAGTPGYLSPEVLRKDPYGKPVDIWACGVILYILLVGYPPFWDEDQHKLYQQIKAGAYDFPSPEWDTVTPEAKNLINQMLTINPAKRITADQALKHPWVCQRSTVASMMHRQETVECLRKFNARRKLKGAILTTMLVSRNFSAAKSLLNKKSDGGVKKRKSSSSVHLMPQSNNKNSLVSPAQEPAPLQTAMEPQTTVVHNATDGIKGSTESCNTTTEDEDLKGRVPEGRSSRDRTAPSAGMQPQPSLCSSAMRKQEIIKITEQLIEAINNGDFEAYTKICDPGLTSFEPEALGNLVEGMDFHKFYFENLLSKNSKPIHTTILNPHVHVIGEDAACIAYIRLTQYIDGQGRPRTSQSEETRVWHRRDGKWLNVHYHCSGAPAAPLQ
T4 sequence (P45985 whole entry): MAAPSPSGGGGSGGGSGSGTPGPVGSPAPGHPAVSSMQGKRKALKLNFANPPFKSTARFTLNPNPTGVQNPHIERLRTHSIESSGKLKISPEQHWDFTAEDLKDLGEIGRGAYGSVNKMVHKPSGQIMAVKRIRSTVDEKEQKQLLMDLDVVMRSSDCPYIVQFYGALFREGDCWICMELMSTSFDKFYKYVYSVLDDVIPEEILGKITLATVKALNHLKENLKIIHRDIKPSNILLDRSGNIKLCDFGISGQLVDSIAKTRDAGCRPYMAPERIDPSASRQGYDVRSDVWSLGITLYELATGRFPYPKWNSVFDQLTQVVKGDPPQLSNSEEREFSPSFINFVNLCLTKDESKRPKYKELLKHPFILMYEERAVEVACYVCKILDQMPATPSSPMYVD
Sequence of MLCK (MLCK2) (Q32MK0 whole entry): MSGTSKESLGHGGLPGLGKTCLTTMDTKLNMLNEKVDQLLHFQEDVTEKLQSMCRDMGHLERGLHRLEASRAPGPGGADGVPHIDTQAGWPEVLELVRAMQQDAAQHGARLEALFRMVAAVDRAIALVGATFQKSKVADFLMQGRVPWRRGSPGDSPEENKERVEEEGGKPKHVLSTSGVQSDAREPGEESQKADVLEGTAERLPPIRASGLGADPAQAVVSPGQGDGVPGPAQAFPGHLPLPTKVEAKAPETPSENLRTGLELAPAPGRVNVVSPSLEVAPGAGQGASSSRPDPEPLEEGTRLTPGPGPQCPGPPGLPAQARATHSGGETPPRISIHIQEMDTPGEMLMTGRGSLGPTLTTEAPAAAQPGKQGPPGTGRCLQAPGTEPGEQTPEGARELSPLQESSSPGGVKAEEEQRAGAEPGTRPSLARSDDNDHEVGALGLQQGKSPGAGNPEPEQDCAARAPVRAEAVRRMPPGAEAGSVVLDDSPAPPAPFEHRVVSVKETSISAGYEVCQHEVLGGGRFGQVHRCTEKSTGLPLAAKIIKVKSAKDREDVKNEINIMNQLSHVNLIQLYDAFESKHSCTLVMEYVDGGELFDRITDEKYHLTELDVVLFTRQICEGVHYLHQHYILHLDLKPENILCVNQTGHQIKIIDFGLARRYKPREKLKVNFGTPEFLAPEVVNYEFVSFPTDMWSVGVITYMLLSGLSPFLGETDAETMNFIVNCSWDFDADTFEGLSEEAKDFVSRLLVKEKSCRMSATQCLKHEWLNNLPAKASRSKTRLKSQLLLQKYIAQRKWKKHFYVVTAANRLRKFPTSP
Sequence of ACVR1 (ALK2) R206H (Q04771 21-509 R206H): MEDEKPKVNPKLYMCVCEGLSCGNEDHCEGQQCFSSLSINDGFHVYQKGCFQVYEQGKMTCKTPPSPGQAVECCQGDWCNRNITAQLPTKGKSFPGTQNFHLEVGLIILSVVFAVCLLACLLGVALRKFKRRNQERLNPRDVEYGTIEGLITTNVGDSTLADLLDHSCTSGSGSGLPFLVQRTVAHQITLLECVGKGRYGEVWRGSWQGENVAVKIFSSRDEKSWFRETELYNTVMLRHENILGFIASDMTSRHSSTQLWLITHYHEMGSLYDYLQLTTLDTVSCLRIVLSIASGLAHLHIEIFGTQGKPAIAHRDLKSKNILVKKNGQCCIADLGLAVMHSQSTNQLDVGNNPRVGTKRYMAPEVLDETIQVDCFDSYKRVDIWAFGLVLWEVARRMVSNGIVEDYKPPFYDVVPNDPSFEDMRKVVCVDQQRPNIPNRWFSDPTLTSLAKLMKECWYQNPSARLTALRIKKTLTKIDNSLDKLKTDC

How did the “Selectivity index DYRK/Haspin” value ([1]; IC50 DYRK1A/IC50 Haspin) turn out when `COc1ccc2[nH]c3c(=O)[nH]c4ccc(O)cc4c3c2c1` [Compound 55, 2-Hydroxy-10-methoxy-5,7-dihydro-6H-indolo[2,3-c]quinolin-6-one] was run?
Its value is 65.

What about the IC50 ([1]; dose-response curve, each point in duplicate, read-out: Kinase inhibition (IC50) DYRK1A) of the same molecule?
Its IC50 is 130 nM.

And the remaining activity ([1]; mean n = 2, % of maximum activity of DMSO control, read-out: % Residual activity at 1 μM DYRK1A)?
The remaining activity was 2%.

And the inhibition at 1 µM [2]?
The inhibition at 1 µM was 44%.

What about the inhibition at 1 µM [3] of the same molecule?
Its inhibition at 1 µM is 21%.

And the inhibition at 1 µM [4]?
Its inhibition at 1 µM is 62%.

And the inhibition at 1 µM [5]?
Its inhibition at 1 µM is 6%.

And the inhibition at 1 µM [6]?
Its inhibition at 1 µM is 35%.

What about the inhibition at 1 µM [7] of the same molecule?
The inhibition at 1 µM was 3%.

And the inhibition at 1 µM [8]?
The inhibition at 1 µM was 26%.

And the inhibition at 1 µM [9]?
The inhibition at 1 µM was 43%.

And the inhibition at 1 µM [10]?
The inhibition at 1 µM was 45%.

And the inhibition at 1 µM [11]?
Its inhibition at 1 µM is 35%.

What about the inhibition at 1 µM [12] of the same molecule?
The inhibition at 1 µM was 14%.

What about the inhibition at 1 µM [13] of the same molecule?
Its inhibition at 1 µM is 34%.

And the inhibition at 1 µM [14]?
The inhibition at 1 µM was 23%.

And the inhibition at 1 µM [15]?
Its inhibition at 1 µM is 35%.

And the inhibition at 1 µM [16]?
Its inhibition at 1 µM is 97%.

And the inhibition at 1 µM [17]?
The inhibition at 1 µM was 34%.

And the inhibition at 1 µM [18]?
Its inhibition at 1 µM is 90%.

What about the inhibition at 1 µM [19] of the same molecule?
The inhibition at 1 µM was 12%.

What about the inhibition at 1 µM [20] of the same molecule?
The inhibition at 1 µM was 15%.

What about the inhibition at 1 µM [21] of the same molecule?
The inhibition at 1 µM was 1%.

And the inhibition at 1 µM [22]?
Its inhibition at 1 µM is 60%.

And the inhibition at 1 µM [23]?
Its inhibition at 1 µM is 36%.

And the inhibition at 1 µM [24]?
Its inhibition at 1 µM is 17%.

What about the inhibition at 1 µM [25] of the same molecule?
The inhibition at 1 µM was 30%.

And the inhibition at 1 µM [26]?
The inhibition at 1 µM was 15%.

What about the inhibition at 1 µM [27] of the same molecule?
Its inhibition at 1 µM is 29%.

And the inhibition at 1 µM [28]?
Its inhibition at 1 µM is 6%.

What about the inhibition at 1 µM [29] of the same molecule?
Its inhibition at 1 µM is 28%.

And the inhibition at 1 µM [30]?
Its inhibition at 1 µM is 97%.

What about the inhibition at 1 µM [31] of the same molecule?
The inhibition at 1 µM was 38%.

What about the inhibition at 1 µM [32] of the same molecule?
The inhibition at 1 µM was 14%.

And the inhibition at 1 µM [33]?
Its inhibition at 1 µM is 4%.

What about the inhibition at 1 µM [34] of the same molecule?
The inhibition at 1 µM was -3%.

And the inhibition at 1 µM [35]?
The inhibition at 1 µM was 77%.
